Assay results from publication PMC11887451, “Leveraging Immunogenic Cell Death to Enhance the Immune Response against Malignant Pleural Mesothelioma Tumors” (Journal of the American Chemical Society, 2025).

Assays:
[1] = tested on: murine malignant mesothelioma cell line AB12; assay: MTT cytotoxicity assay, 72 h, AB12; format: cell-based, mouse; conditions: exposure time 72 h
[2] = tested on: AB12 cells phagocytosed by J774 macrophages; assay: Phagocytosis assay, flow cytometry; format: cell-based, mouse; conditions: AB12 treated 100 min at 5 × IC50 (72 h), 16 h with J774 macrophages
Method: page 21: incubated for an additional 50 min. Subsequently, the medium was aspirated, and the purple formazan crystals formed in viable cells were dissolved in DMSO (100 μL/well). Optical densities were measured at 570 nm using a BioTek Synergy H1 microplate and MultiskanTM SkyHigh plate readers. The quantity of viable cells was expressed in terms of treated/control (T/C) values in comparison to untreated control cells, and 50% inhibitory concentrations (IC 50) were calculated from concentration-effect curves by interpolation. An evaluation was based on means from at least three independent experiments, each comprising three […] concentration level. For macrophage analyses, the acute monocytic leukemia -derived THP-1 cell line (ATCC) was used as a model. 1 × 104 THP-1 cells were seeded per well in 96-well plates in RPMI-1640 with 10% FCS and treated for 24 h with 75 nM phorbol 12-myristate 13-acetate (PMA, Sigma- Aldrich) to induce M0 macrophage differentiation. After the differentiation period, PMA was replaced by fresh culture medium to recover for 2h. Afterwards increasing concentrations of 1G, 5A, 5B and 5G were added for a 72-h continuous drug exposure assay. In parallel, the […] were allowed to attach for 24 h. Gold compounds were added to the cells as described for the THP-1 model above. After the incubation period of 72 h, cell viability was determined by an MTT-based assay (EU4U, Biomedica) following the instructions of the manufacturer. DMSO had not impact on the cell viability at the concentrations used. Flow cytometry experiments Phagocytosis assay […] with RPMI, centrifuged (300 × g, 5 min) and labelled with CellTracker Red CMTPX Dye (0.72 μM for 5 × 10^5 cells) at 37°C for 30 minutes in 1 ml of serum -free RPMI. Following S21 page 22: centrifugation of the cells (300 × g, 5 min), 5 ml of fresh RPMI was introduced, and the cells were seeded at a density of 5 x 10^5 cells per well into Cellstar 6-well plates (Greiner Bio-One) (1 ml per well). J774 macrophages (70-80% confluence in a T75 flask) were detached by scraping, centrifuged (300 × g, 5 min). The medium was substituted with 1 ml of DMEM containing CellTracker Green CMFDA (1 μM) and the J774 macrophages were stained at 37°C for 30 minutes. Following centrifugation of the J774 macrophages (300 × g, 5 min), 5 ml of fresh DMEM was introduced, and the macrophages were seeded into a 100 cm2 petri dish (SPL Life Sciences, Korea). After 24 h, the media in AB12 cells was replaced with 1 ml of fresh […] for 100 minutes. After removing the drug-containing media, the cells were trypsinized (0.5 ml), neutralized with 1 ml of RPMI, centrifuged (300 × g, 5 min) and counted. From each sample, […] cells into 6-well plates. AB12 cells and J774 macrophages were co-incubated for 16 h at 37°C and 5% CO2, detached by scraping, centrifuged (300 × g, 5 min), and the pellets were resuspended in PBS for immediate analysis using a CytoFLEX Flow Cytometer (Beckman Coulter, USA). The percentage of phagocytosis was determined by calculating the number of double-positive macrophages (Q2) over the total number of macrophages (Q2 + Q3). […] Annexin V/PI assay AB12 cells were seeded into Cellstar 6-well plates (Greiner Bio-One) at a density of 5 × 10^5 cells/well (1 ml per well). […] The medium was removed and cells were washed with PBS (2 × 1 mL). Afterwards the cells were […] S22

[3] = tested on: patient-derived Meso84 cell line (sarcomatoid MPM); assay: MTT cytotoxicity assay, 72 h, Meso84; format: cell-based, human; conditions: exposure time 72 h
Excerpt: (§1) Human malignant mesothelioma cancer cell lines JU77 and LO68 were obtained from Cell Bank Australia (Children's Medical Research Institute, Westmead, Australia). Mouse malignant mesothelioma cancer cell line AB12, human nonmalignant mesothelioma cancer cell line Met5A (mesothelial cells), mouse macrophage cell line J774 and human monocytic cell line THP-1 were obtained from American Type Culture Collection (ATCC) (Rockville, MD, USA). Human malignant mesothelioma cell lines VMC23 (epithelial), Meso82 (sarcomatous), Meso92 (biphasic), were kindly provided by Prof. Walter Berger (Medical University of Vienna). All cells except for J774 were cultured in RPMI and J774 cells were cultured in DMEM. Both types of media were supplemented with 10% FBS and 1% penicillin-streptomycin (10,000 U/mL). Cells were grown in tissue culture flasks (75 cm2 and 25 cm2, SPL Life Sciences Co., Ltd., Korea). All cell lines were grown at 37 °C in a humidified atmosphere of 95% air and 5% CO 2 and passaged when they reached 80–90% confluency. All Au stock solutions were prepared in 1% DMSO in the respected medium, ensuring that cell viability was not inhibited.
(§2) The cytotoxicity of compounds was determined using an MTT colorimetric test. The cells were harvested from culture flasks by trypsinization and seeded into Cellstar 96 -well microculture plates (Greiner Bio -One) at the seeding density of 6000 cells per well (6 × 10^4 cells/mL). After
(§3) the cells were allowed to resume exponential growth for 16 h, they were exposed to drugs at
(§4) different concentrations in media for 72 h. The drugs were diluted in a complete medium at the desired concentration added to each well (100 μL) and serially diluted in other wells. After exposure for 72 h, the media was replaced with MTT in media (5 mg/mL, 100 μL/well) and
(§5) incubated for an additional 50 min. Subsequently, the medium was aspirated, and the purple formazan crystals formed in viable cells were dissolved in DMSO (100 μL/well). Optical densities were measured at 570 nm using a BioTek Synergy H1 microplate and MultiskanTM SkyHigh plate readers. The quantity of viable cells was expressed in terms of treated/control (T/C) values in comparison to untreated control cells, and 50% inhibitory concentrations (IC 50) were calculated from concentration-effect curves by interpolation. An evaluation was based on means from at least three independent experiments, each comprising three replicat es per

[4] = tested on: human malignant mesothelioma cell line JU77; assay: MTT cytotoxicity assay, 72 h, JU77; format: cell-based; conditions: exposure time 72 h
AB12 cells = assay: Annexin V/PI assay (necrosis), flow cytometry; format: cell-based, mouse; conditions: AB12, 5 × IC50 (72 h), short exposure
Method: centrifugation of the cells (300 × g, 5 min), 5 ml of fresh RPMI was introduced, and the cells were seeded at a density of 5 x 10^5 cells per well into Cellstar 6-well plates (Greiner Bio-One) (1 ml per well). J774 macrophages (70-80% confluence in a T75 flask) were detached by scraping, centrifuged (300 × g, 5 min). The medium was substituted with 1 ml of DMEM containing CellTracker Green CMFDA (1 μM) and the J774 macrophages were stained at 37°C for 30 minutes. Following centrifugation of the J774 macrophages (300 × g, 5 min), 5 ml of fresh DMEM was introduced, and the macrophages were seeded into a 100 cm2 petri dish (SPL Life Sciences, Korea). After 24 h, the media in AB12 cells was replaced with 1 ml of fresh RPMI containing compounds of interest at equipotent concentration of 5 × IC50 and incubated for 100 minutes. After removing the drug-containing media, the cells were trypsinized (0.5 ml), neutralized with 1 ml of RPMI, centrifuged (300 × g, 5 min) and counted. From each sample, 2 × 10^5 AB12 cells were seeded into Cellstar 6-well plates (Greiner Bio-One) (1 ml per well).
2 × 10^5 J774 macrophages were detached from a petri dish by scraping and added to AB12 cells into 6-well plates. AB12 cells and J774 macrophages were co-incubated for 16 h at 37°C and 5% CO2, detached by scraping, centrifuged (300 × g, 5 min), and the pellets were resuspended in PBS for immediate analysis using a CytoFLEX Flow Cytometer (Beckman Coulter, USA). The percentage of phagocytosis was determined by calculating the number of double-positive macrophages (Q2) over the total number of macrophages (Q2 + Q3). Dot plots […]
analysis of the flow cytometry data. […]
concentrations for 100 min at 37 °C. […] Cell death was evaluated by flow cytometry using a CytoFLEX Flow Cytometer equipped with a 488 nm laser and a 638 nm laser (Beckman Coulter, Brea, CA, USA). The cells were excited by the 488 nm laser, and fluorescence emissions were detected at 525/40 nm for FITC (Annexin V) and at 610/20 nm for ECD (PI).
The percentage of necrosis was determined by calculating the sum of cells in Q1 and Q2. […]

[5] = tested on: patient-derived VMC23 cell line (epithelioid MPM); assay: MTT cytotoxicity assay, 72 h, VMC23; format: cell-based, human; conditions: exposure time 72 h
Excerpt: as §1, §2, §3, §4, §5

[6] = tested on: human malignant mesothelioma cell line LO68; assay: MTT cytotoxicity assay, 72 h, LO68; format: cell-based; conditions: exposure time 72 h
Excerpt: as §1, §2, §3, §4, §5

[7] = tested on: patient-derived Meso92 cell line (biphasic MPM); assay: MTT cytotoxicity assay, 72 h, Meso92; format: cell-based, human; conditions: exposure time 72 h
Excerpt: Cell lines and culture conditions
Mouse malignant mesothelioma cancer cell line AB12, human nonmalignant mesothelioma cancer cell line Met5A (mesothelial cells), mouse macrophage cell line J774 and human monocytic cell line THP-1 were obtained from American Type Culture Collection (ATCC) (Rockville, MD, USA). Human malignant mesothelioma cell lines VMC23 (epithelial), Meso82 (sarcomatous), Meso92 (biphasic), were kindly provided by Prof. Walter Berger (Medical University of Vienna). All cells except for J774 were cultured in RPMI and J774 cells were cultured in DMEM. Both types of media were supplemented with 10% FBS and 1% penicillin-streptomycin (10,000 U/mL). Cells were grown in tissue culture flasks (75 cm2 and 25 cm2, SPL Life Sciences Co., Ltd., Korea). All cell lines were grown at 37 °C in a humidified atmosphere of 95% air and 5% CO 2 and passaged when they reached 80–90% confluency. All Au stock solutions were prepared in 1% DMSO in the respected medium, ensuring that cell viability was not inhibited. The Au concentration in the stock solutions was confirmed through inductively coupled plasma optical emission spectrometry. The stock solution of pemetrexed (10 mM) was prepared in Milli -Q water.
Inhibition of c ell viability assay
as §2, §3, §4, §5

[8] = determined from retention time using RP-HPLC
[9] = tested on: human nonmalignant mesothelioma cell line Met5A; assay: MTT cytotoxicity assay, 72 h, Met5A; format: cell-based; conditions: exposure time 72 h
BALB/c mice = conditions: i.p., 12 injections, 5F 2.5 mg/kg

SMILES | IC50 [1] | phagocytosis / ICD response (in words) [2] | IC50 [3] | IC50 [4] | necrotic cell death (in words) (AB12 cells) | IC50 [5] | IC50 [6] | IC50 [7] | LogP [8] | IC50 [9] | signs of toxicity, daily injections (BALB/c mice; 5A and 5H 4 mg/kg) | deaths, daily injections (BALB/c mice; 5H 4 mg/kg)
F[P-](F)(F)(F)(F)F.c1cc[c]2c(c1)-c1cccc[n+]1[Au-]21[S]C(=[N+]2CCCCC2)[S]1 (stereo not shown) [1H] | 91 ± 18 nM | high levels of phagocytosis | 700 ± 90 nM | 620 ± 120 nM | did not result in significant necrotic cell death | 1400 ± 100 nM | 370 ± 100 nM | 1100 ± 100 nM | 2.45 | 130 ± 30 nM | – | –
F[P-](F)(F)(F)(F)F.c1cc[c]2c(c1)Nc1cccc[n+]1[Au-]21[S]C(=[N+]2CCCCC2)[S]1 (stereo not shown) [5H] | 100 ± 10 nM | – | 100 ± 20 nM | 400 ± 90 nM | – | 940 ± 270 nM | 440 ± 90 nM | 820 ± 180 nM | – | 130 ± 10 nM | led to toxicity in mice | death of two mice
F[P-](F)(F)(F)(F)F.c1ccc(C[N+](Cc2ccccc2)=C2[S][Au-]3([S]2)[c]2ccccc2Cc2cccc[n+]23)cc1 (stereo not shown) [2D] | 3900 ± 500 nM | high levels of phagocytosis | 3000 ± 300 nM | 2300 ± 700 nM | did not result in significant necrotic cell death | 2400 ± 500 nM | 2200 ± 400 nM | 5400 ± 1300 nM | – | 2500 ± 400 nM | – | –
